Laboratory results taken from ChEMBL document CHEMBL3137667, “[Drug-induced liver injury; fourteenth updated edition of the bibliographic database of liver injuries and related drugs]” (Gastroenterol Clin Biol, 2004).

Columns and labels:
[1] = human
[2] = human, serum
[3] = human; remark: listed apart in the source
[4] = human; remark: listed apart in the source
[5] = human, serum, 4383 h
[6] = Highest frequency of acute liver toxicity observed during clinical trials, expressed as a percentage. [column '% AIGUE' in source]; details: human
[7] = human; remark: listed apart in the source
[8] = human; remark: listed apart in the source
[9] = human; remark: listed apart in the source
[10] = human; remark: listed apart in the source
[11] = Times to onset, minimal and maximal, observed in the indexed observations. [column 'DELAI' in source]; details: human
[12] = human; remark: listed apart in the source
[13] = Highest frequency of moderate liver toxicity observed during clinical trials, expressed as a percentage. [column '% BIOL' in source]; details: human
[14] = human; remark: listed apart in the source
[15] = human, serum; remark: listed apart in the source
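Throughout, for Hepatotoxicity (association with vascular disease): count of indexed literature references reporting vascular liver injury in humans, e.g. peliosis hepatitis, hepatic veno-occlusive disease or Budd-Chiari syndrome.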
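Throughout, for Hepatotoxicity (benign tumour): value is a count of indexed literature references citing a benign tumour confirmed by histopathology.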
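Throughout, for Hepatotoxicity (choleostasis): human cholestatic liver injury, shown by histopathology or by peak ALT or AST elevation over alkaline phosphatase ratio below 2, value counts indexed literature reports.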
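Throughout, for Hepatotoxicity (chronic liver disease): chronic liver injury confirmed by histopathology or persistently raised serum aminotransferase activity beyond 6 months, value given as the count of indexed literature references.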
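Throughout, for Hepatotoxicity (cirrhosis): value is a count of indexed literature references reporting cirrhosis confirmed by histopathology.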
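Throughout, for Hepatotoxicity (cytolytic): human cytolytic liver injury, shown by histopathology or by a ratio above 5 of peak ALT or AST elevation to alkaline phosphatase elevation, value counts indexed references.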
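Throughout, for Hepatotoxicity (granulomatous hepatitis): value is a count of indexed literature references reporting granulomatous liver disease confirmed by histopathology.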
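Throughout, for Hepatotoxicity (malignant tumour): malignant tumour confirmed by histopathology, value gives the count of indexed literature references reporting it.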
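Throughout, for Hepatotoxicity (severe hepatitis): human clinical data: severe hepatitis, meaning potentially life-threatening liver failure or clinically observed cases, the value counts how many indexed literature references report it.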
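Throughout, for Hepatotoxicity (steatosis): steatosis confirmed by histopathology, value is the count of indexed references.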

Row | Structure (SMILES) | Hepatotoxicity (benign tumour) [1] | Hepatotoxicity (acute) [2] | Hepatotoxicity (cirrhosis) [3] | Hepatotoxicity (association with vascular disease) [4] | Hepatotoxicity (chronic liver disease) [5] | Hepatotoxicity (acute) [6] [%] | Hepatotoxicity (choleostasis) [7] | Hepatotoxicity (malignant tumour) [8] | Hepatotoxicity (granulomatous hepatitis) [9] | Hepatotoxicity (steatosis) [10] | Hepatotoxicity (time to onset) [11] | Hepatotoxicity (severe hepatitis) [12] | Hepatotoxicity (moderate) [13] [%] | Hepatotoxicity (cytolytic) [14] | Hepatotoxicity (moderate) [15] | Hepatotoxicity (acute) ([6]; Liver) [%] | Hepatotoxicity (severe hepatitis) ([12]; Liver) | Hepatotoxicity (moderate) ([13]; Liver) [%]
1 | CCc1oc2ccccc2c1C(=O)c1cc(I)c(O)c(I)c1 [BENZIODARONE] | 0 | 3 | 0 | 0 | 0 | 0 | 3 | 0 | 0 | 0 | 1 month - 4 months | 0 | 0 | 0 | 0 |  |  | 
2 | CC(C)COCC(CN(Cc1ccccc1)c1ccccc1)N1CCCC1 (stereo not given) [BEPRIDIL] | 0 | 1 | 0 | 0 | 0 | 0 | 0 | 0 | 0 | 1 | 4 days - 20 days | 0 | 2.8 | 1 | 3 |  |  | 
3 | CC(O)(CS(=O)(=O)c1ccc(F)cc1)C(=O)Nc1ccc(C#N)c(C(F)(F)F)c1 (stereo not given) [BICALUTAMIDE] | 0 | 1 | 0 | 0 | 0 | 0 | 0 | 0 | 0 | 0 | 2 days | 1 | 6 | 1 | 1 |  |  | 
4 | CC(C)(S)C(=O)N[C@@H](CS)C(=O)O [BUCILLAMINE] | 0 | 0 | 0 | 0 | 0 | 0 | 0 | 0 | 0 | 0 | 2 weeks | 0 | 9.4 | 0 | 5 |  |  | 
5 | CCCC1O[C@@H]2C[C@H]3[C@@H]4CCC5=CC(=O)C=C[C@]5(C)[C@H]4[C@@H](O)C[C@]3(C)[C@]2(C(=O)CO)O1 (stereo not given in full) [BUDESONIDE] | 0 | 1 | 0 | 0 | 0 | 0 | 0 | 0 | 0 | 0 | 19 days | 0 | 0 | 1 | 0 |  |  | 
6 | CCCCNc1cc(C(=O)O)cc(S(N)(=O)=O)c1Oc1ccccc1 [BUMETANIDE] | 0 | 0 | 0 | 0 | 0 |  | 0 | 0 | 0 | 0 | 2 weeks - 6 months |  |  | 0 | 3 | 0 | 0 | 1.1
7 | O=C1CC2(CCCC2)CC(=O)N1CCCCN1CCN(c2ncccn2)CC1 [BUSPIRONE] | 0 | 1 | 0 | 0 | 0 | 0 | 1 | 0 | 0 | 0 | 26 days | 0 | 5.3 | 1 | 2 |  |  | 
8 | C=CCC1(CC(C)C)C(=O)NC(=O)NC1=O [BUTALBITAL] | 0 | 1 | 0 | 0 | 0 | 0 | 0 | 0 | 0 | 0 | 2.5 months | 0 | 0 | 1 | 0 |  |  | 
9 | CN(C)C(=O)OC1N=C(c2ccccc2)c2cc(Cl)ccc2N(C)C1=O (stereo not given) [CAMAZEPAM] | 0 | 1 | 0 | 0 | 0 | 0 | 0 | 0 | 0 | 0 | 3 months | 0 | 0 | 1 | 0 |  |  | 
10 | CCCC(C)(COC(N)=O)COC(=O)NC(C)C (stereo not given) [CARISOPRODOL] | 0 | 1 | 0 | 0 | 0 | 0 | 0 | 0 | 0 | 0 | 2 weeks | 0 | 0 | 1 | 0 |  |  | 
11 | COc1ccccc1OCCNCC(O)COc1cccc2[nH]c3ccccc3c12 (stereo not given) [CARVEDILOL] | 0 | 1 | 0 | 0 | 0 |  | 1 | 0 | 0 | 0 | 6 months |  |  | 1 | 0 | 0 | 0 | 0
12 | N[C@@H](C(=O)N[C@@H]1C(=O)N2C(C(=O)O)=C(Cl)CS[C@H]12)c1ccccc1 [CEFACLOR ANHYDROUS] | 0 | 2 | 0 | 0 | 0 | 2.2 | 2 | 0 | 0 | 0 | 8 days | 0 | 10.7 | 1 | 20 |  |  | 
13 | Cn1nnnc1SCC1=C(C(=O)O)N2C(=O)[C@@H](NC(=O)[C@H](O)c3ccccc3)[C@H]2SC1 [CEFAMANDOLE] | 0 | 2 | 0 | 0 | 0 | 2.4 | 1 | 0 | 0 | 0 | 4 days | 0 | 75 | 0 | 13 |  |  | 
14 | C=CC1=C(C(=O)O)N2C(=O)[C@@H](NC(=O)/C(=N\OCC(=O)O)c3csc(N)n3)[C@H]2SC1 [CEFIXIME] | 0 | 1 | 0 | 0 | 0 | 0 | 1 | 0 | 0 | 0 | 2 days | 0 | 33.3 | 0 | 37 |  |  | 
